Results as given in ChEMBL document CHEMBL1129657, “Tetrahydrobenzothiophenone derivatives as a novel class of adenosine receptor antagonists” (J Med Chem, 1996).
“And” between values parts separate entries of the source, which are not always exact repeats. Identical values can stand only once.

Assays:
Adenosine receptor A1 = biological target: T1, Adenosine receptor A1 (Rattus norvegicus, UniProt P25099); test: Tested for the displacement [3H]PIA from Adenosine A1 receptor in rat brain membrane; assay type: cell membranes
T1 sequence (P25099 whole entry): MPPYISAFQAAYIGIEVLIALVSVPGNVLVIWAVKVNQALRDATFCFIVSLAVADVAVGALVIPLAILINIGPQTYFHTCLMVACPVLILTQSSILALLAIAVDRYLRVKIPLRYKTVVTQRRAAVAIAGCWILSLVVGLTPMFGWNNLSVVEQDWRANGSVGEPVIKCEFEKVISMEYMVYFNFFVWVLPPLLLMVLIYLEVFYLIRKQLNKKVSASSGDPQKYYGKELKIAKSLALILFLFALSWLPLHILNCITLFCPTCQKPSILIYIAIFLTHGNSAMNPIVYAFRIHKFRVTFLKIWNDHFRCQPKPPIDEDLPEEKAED

[1] = biological target: Adenosine receptors; A1 & A2a (Rattus norvegicus) (UniProt P25099+P30543); test: Selectivity for adenosine A2a and A1 receptors; assay type: protein assay
Adenosine receptor A2a [2] = biological target: T2, Adenosine receptor A2a (Rattus norvegicus, UniProt P30543)
Description: (§1) Displacement [3H]-CGS-21,680 from Adenosine A2A receptor in rat striatal membrane.

Adenosine receptor A3 [3] = biological target: T3, Adenosine receptor A3 (Rattus norvegicus, UniProt P28647); test: Displacement of [125I]AB-MECA from rat Adenosine A3 receptor expressed in CHO cell membrane; assay type: cell membranes
T3 sequence (P28647 whole entry): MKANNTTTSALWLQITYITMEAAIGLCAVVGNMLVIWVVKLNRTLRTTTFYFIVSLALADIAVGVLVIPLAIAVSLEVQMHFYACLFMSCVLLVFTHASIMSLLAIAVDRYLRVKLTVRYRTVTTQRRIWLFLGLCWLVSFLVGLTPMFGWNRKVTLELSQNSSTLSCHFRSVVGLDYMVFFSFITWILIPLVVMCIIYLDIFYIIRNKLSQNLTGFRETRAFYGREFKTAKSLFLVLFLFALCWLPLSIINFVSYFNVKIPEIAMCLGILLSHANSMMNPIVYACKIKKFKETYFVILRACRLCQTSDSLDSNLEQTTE

Adenosine receptor A3 [4] = biological target: T4, Adenosine receptor A3 (Homo sapiens, UniProt P0DMS8); test: Displacement of [125I]AB-MECA from human Adenosine A3 receptor expressed in HEK293 cell membrane; assay type: cell membranes
T4 sequence (P0DMS8 whole entry): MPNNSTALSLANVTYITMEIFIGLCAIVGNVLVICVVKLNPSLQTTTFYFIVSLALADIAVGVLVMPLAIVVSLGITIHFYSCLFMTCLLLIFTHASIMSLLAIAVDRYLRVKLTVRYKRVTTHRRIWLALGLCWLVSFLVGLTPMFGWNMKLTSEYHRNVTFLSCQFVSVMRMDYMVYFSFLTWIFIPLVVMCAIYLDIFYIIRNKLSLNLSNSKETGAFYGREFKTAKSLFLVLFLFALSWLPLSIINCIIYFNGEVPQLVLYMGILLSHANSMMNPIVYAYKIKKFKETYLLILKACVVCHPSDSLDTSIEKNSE

[5] = biological target: Adenosine receptor A2a (Rattus norvegicus) (UniProt P30543); test: Displacement [3H]CGS-21680 from Adenosine A2A receptor in rat striatal membrane; assay type: cell membranes; design: concentration or dose not given beside the values; conditions: Striatum, concentration not given here
[6] = biological target: Adenosine A1 receptor (Rattus norvegicus) (UniProt P25099); test: Selectivity for rat adenosine A3 and rat adenosine A1 receptors
[7] = biological target: T5, Adenosine receptor A1 (Rattus norvegicus) (UniProt P25099); test: Displacement of [3H]PIA from Adenosine A1 receptor of rat brain membrane at 10e-4 M
T5 sequence (whole entry): T1 sequence (P25099 whole entry)

[8] = biological target: T6, Adenosine receptor A3 (Homo sapiens) (UniProt P0DMS8); test: Displacement of [125I]AB-MECA from human Adenosine A3 receptor expressed in HEK293 cell membrane at 10e-4 M; assay type: cell membranes
T6 sequence (whole entry): T4 sequence (P0DMS8 whole entry)

Adenosine receptor A2a [9] = biological target: T2, Adenosine receptor A2a; remark: listed apart in the source
Description: as §1

Adenosine receptor A2a (Rattus norvegicus), sequence (P30543 whole entry): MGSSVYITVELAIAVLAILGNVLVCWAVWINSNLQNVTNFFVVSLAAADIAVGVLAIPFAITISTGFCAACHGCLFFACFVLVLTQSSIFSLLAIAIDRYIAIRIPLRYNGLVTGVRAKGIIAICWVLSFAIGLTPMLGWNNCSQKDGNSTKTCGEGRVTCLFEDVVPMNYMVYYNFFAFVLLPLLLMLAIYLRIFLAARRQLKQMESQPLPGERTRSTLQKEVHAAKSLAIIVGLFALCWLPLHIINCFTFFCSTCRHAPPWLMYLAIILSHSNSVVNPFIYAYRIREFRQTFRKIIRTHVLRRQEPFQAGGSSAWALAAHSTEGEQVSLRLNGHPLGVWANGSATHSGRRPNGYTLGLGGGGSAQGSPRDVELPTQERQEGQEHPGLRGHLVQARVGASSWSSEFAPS
T2 sequence (P30543 whole entry): as above
Adenosine receptors; A1 & A2a (Rattus norvegicus), sequence (P30543 whole entry, looked up, one chain of several): as the sequence (P30543 whole entry) above

Compound	Ki (Adenosine receptor A1)	Selectivity [1]	Ki (Adenosine receptor A2a [2])	other results
CCOC(=O)c1sc(SC(C)C)c2c1CCCC2=O	1.79 µM	2.6	4.63 µM	
O=C(O)c1sc(SCc2ccccc2)c2c1CCCC2=O	50 µM	0.3	15.2 µM	Ki (Adenosine receptor A3 [3]): 42 µM; Ki (Adenosine receptor A3 [4]): 117 µM
CSc1sc(C(=O)NN)c2c1C=CCC2	51.6 µM	> 1.9		Ki (Adenosine receptor A3 [3]): 13.1 µM; inhibition [5]: < 10%; Selectivity [6]: 0.25
CCOC(=O)c1sc(SC)c2c1CCCC2=O	1.93 µM	1.9	3.66 µM	Ki (Adenosine receptor A3 [3]): 15.2 µM; Selectivity [6]: 7.88
CSc1scc2c1C(=O)CCC2		> 1		inhibition [7]: 28%; inhibition [5]: < 10%
CSc1sc(C(=O)NN)c2c1C(O)CCC2 (stereo not drawn)	71.2 µM	> 1.4		inhibition [5]: 28.9%
CCOC(=O)c1sc(SCc2ccccc2)c2c1CC(C)(C)CC2=O	0.567 µM	> 17.6		inhibition [5]: 34%
COc1cc(-c2oc3c(OC)cc(CCCO)cc3c2C=O)ccc1O	0.017 µM			
CCOC(=O)c1sc(SC(C)CC)c2c1CC(C)(C)CC2=O (stereo not drawn)	3.64 µM	29.1	106 µM	
Nc1nc2ccccc2n2cc(-c3ccccc3)nc12	0.034 µM		0.29 µM	
CCOC(=O)c1sc(SCc2ccccc2)c2c1CCCC2=O	0.72 µM and 0.715 µM	1.9	1.36 µM	inhibition [8]: 24%; Ki (Adenosine receptor A2a [9]): 1.36 µM
CCCSc1sc(C(=O)OCC)c2c1C(=O)CCC2	1.26 µM	3.7	4.69 µM	
Nc1nc2ccc(Cl)cc2n2c(-c3ccccc3)nnc12			0.021 µM	
CCOC(=O)c1sc(SC)c2c1CCCC2O (stereo not drawn)	18.3 µM	1.8	33.5 µM	Ki (Adenosine receptor A3 [3]): 15.4 µM; Ki (Adenosine receptor A3 [4]): 35.8 µM; Selectivity [6]: 0.84
O=c1c(-c2ccc(O)cc2)coc2cc(O)cc(O)c12 [GENISTEIN]			36 µM	
C=CCSc1sc(C(=O)OCC)c2c1C(=O)CCC2	1.06 µM	5.7	6.04 µM	
Nc1nc2ccc(Cl)cc2c2nc(-c3ccco3)nn12 [CGS-15943]			3.3 µM	
CCOC(=O)c1sc(S(C)(=O)=O)c2c1CC(C)(C)CC2=O	32.7 µM	> 3.1		Ki (Adenosine receptor A3 [3]): 51.8 µM; inhibition [5]: 13%; Selectivity [6]: 1.58
CCOC(=O)CSc1sc(C(=O)OCC)c2c1C(=O)CCC2	2.22 µM	11.5	25.6 µM	Ki (Adenosine receptor A3 [3]): 10.2 µM; Selectivity [6]: 4.59
CCOC(=O)c1sc(SCC)c2c1CC(C)(C)CC2=O			23.9 µM	
CCCCSc1sc(C(=O)OCC)c2c1C(=O)CCC2	1.42 µM	11	15.6 µM	
CCOC(=O)c1sc(SC)c2c1CCC/C2=N/OC	69.8 µM	> 1.4		inhibition [5]: 22%
CCOC(=O)c1sc(NN)c2c1CCCC2=O	17.5 µM	2.1	36.1 µM	
